Experimental data published in patent US9243227B2, “Cytotoxic T lymphocyte” (Mie University, priority 2004, dated 2016).

What was measured:
[1] = tested on: CD8+ cells from HLA-A2402-positive healthy normal volunteers; assay: In vitro induction of human CTLs using CD8− PBMC pulsed with a peptide; format: cell-based; conditions: one stimulation with CD8-negative PBMC pulsed with 10 μM peptide; 10 days after mixed lymphocyte reaction in vitro
Method: The number 1×10^7 of CD8-negative PBMC were pulsed with 10 μM peptide by incubation at room temperature for 1 hour and at 37° C. in 5% CO2 for 1 hour, in 200 μl RPMI1640 medium containing 25 mM Hepes, 10 wt % inactivated human AB-positive serum, 2 mM L-glutamine, 100 U/milliliter penicillin, and 100 μg/milliliter streptomycin. The resulting cells were used as antigen-presenting cells. The number 5×10^5 of CD8+ T cells that were separated were then stimulated by incubation for from 10 to 12 days with 1×10^6 cells of the peptide-pulsed CD8− PBMC. On Days 1, 4 and 7, half amount of the medium was exchanged with fresh one, and human IL-2 (20 IU/milliliter) and IL-7 (50 ng/milliliter) were added thereto. Culturing for induction was conducted in 200 μl RPMI1640 medium (containing 25 mM Hepes, 10 wt % inactivated human AB serum, 2 mM L-glutamine, 100 U/milliliter penicillin, 100 μg/milliliter streptomycin). […]
In staining, sensitized CD8+ T cells were reacted with 20 μg/milliliter tetramer at 37° C. for 30 minutes, and then reacted with a tricolor anti-CD8 monoclonal antibody (trade name, Caltag Laboratories, Burlingame, Calif., USA) on ice for 15 minutes. After washing, the stained cells were analyzed by flow cytometry (trade name: FACSCalibur, manufactured by Becton Dickinson, and Company). […]

[2] = tested on: CD8-positive cells derived from immunized HHDA2402+/−β2m−/− mice; assay: IFN-gamma ELISPOT assay (mice), gene gun-immunized HLA-A2402 transgenic mice; format: cell-based, mouse; conditions: HHDA2402 mice immunized twice by gene gun with plasmid of the parent antigen; CD8-negative cells pulsed with peptide as target cells; FIG. 1A-1C
Method: A DNA construct (HHDA2402) containing an HLA-A2402 leader sequence, human β2 microglobulin, HLA-A2402 α1 and α2 domains, an H-2D^b α3 transmembrane domain, and a cytoplasm domain was constructed. The resulting construct was cloned into an expression vector pcDNA 3.1 (manufactured by Invitrogen Corporation). The HHDA2402 construct (4 kb SalI-NotI fragment) was injected into fertilized eggs of C57BL/6 mice, to give HHDA2402-expressing mice. Then, the […] mice were bred with β2m−/− mice (manufactured by The Jackson Laboratory). The resulting HHDA2402+/−β2 m+/− were bred with β2m−/− mice to give HHDA2402+/−β2m−/− mice (referred to hereinafter as “HHDA2402 mice”).
Using Helios Gene Gun System (trade name, manufactured by Bio-Rad Laboratories, Inc.), gold particles coated with plasmid DNA were administered endoabdominally at a helium pressure of from 350 to 400 psi into HHDA2402 mice (6-to 8-week-old, female). The gold particles were prepared according to a manufacturer's manual. After 2 weeks, booster administration was carried out. After 1 week, spleen cells were collected.
One week after the final immunization, MACS system (trade name, manufactured by Mitlenyi Biotec) using CD8 alpha (Lyt 2) microbeads was used, to select CD8-positive T cells. The purity of the resulting T cell fraction analyzed by flow cytometry was 95% or more.
(§1) A 96-well nitrocellulose ELISPOT plate (trade name: MAHA 54510, manufactured by Millipore Corporation) was incubated overnight with 2 μg/milliliter anti-mouse IFN-gamma mAb (trade name: clone R4-6A2, manufactured by PharMingen Company) at 4° C., to coat the plate. Each well was washed with phosphate buffered physiologic saline (PBS). The well after washing was blocked by incubation at 37° C. for 2 hours in FCS-containing RPMI1640 medium.
Fresh CD8-positive cells (1×10^5 cells/well) derived from the immunized mice and CD8-negative cells (1×10^6 cells/well) pulsed with various peptides were seeded to each well and regulated so as to have a final volume of 200 μl. Then, the cells were cultured at 37° C. for 22 hours. Thereafter, the cells were washed sufficiently with PBS containing 0.05 wt % Tween™ 20 (referred to as “PBS-Tween”). Two hundreds microliters of 1.25 μg/milliliter biotinylated anti-mouse IFN-gamma mAb (trade name, manufactured by PharMingen Company) was added to the cells after washing, and the cells were then cultured overnight at 4° C. The cells thus obtained were washed with PBS-Tween. One hundred microliters of 1 μg/milliliter streptavidin-alkaline phosphatase conjugate (trade name, manufactured by Mabtech Ltd.) was added to the cells after washing. Thereafter, the resulting mixture was incubated at room temperature for 90 minutes, to carry out reaction. The resulting product was washed with PBS-Tween and then stained with an alkaline phosphatase conjugate substrate kit (trade name, manufactured by Bio-Rad Laboratories, Inc.). Thereafter, the product after staining was washed with distilled water to terminate the reaction. Then, the plate was dried and spots were counted.
HHDA2402 mice were immunized with an expression plasmid carrying EB virus-derived EBNA 3A gene by a gene gun. After immunized twice, spleen-derived CD8+ T cells were prepared. CD8-negative cells pulsed with the EBNA 3A246-254 peptide were used as target cells, to carry out ELISPOT assay. […]

[3] = tested on: human bulk CTLs sensitized with mRNA-introduced autologous CD4+ PHA blast cells; assay: IFN-γ ELISPOT assay (human) with peptide-pulsed T2A24 cells; format: cell-based
Method: On the 0th day, PHA (trade name: HA15, manufactured by Murex S.A.) was added to the medium in each well of the plate at a final concentration of 10 μg/milliliter. On the 3rd day, half amount of the medium was exchanged with the above medium containing IL-2 (20 U/milliliter) and IL-7 (40 ng/milliliter). Exchange of the medium was repeated every 3 days, whereby activated CD4-positive cells were obtained. The mRNA was introduced by electroporation into the activated CD4-positive cells at 14 to 28 days after culture was initiated. The resulting cells were used below as antigen-presenting cells.
MACS CD8 Microbeads (trade name, manufactured by Miltenyi Biotec) were used, to separate CD8+ T cells from PBMC. The number 5×10^5 cells of CD8+ T cells thus obtained were stimulated with radiation (30 Gy)-irradiated 1×10^5 mRNA-introduced CD4+ PHA blast cells in a 96-well round plate (manufactured by Nunc Corporation). After 7 days, the CD8+ T cells were stimulated again with radiation (30 Gy)-irradiated 1×10^5 mRNA-introduced CD4+ PHA blast cells, and then cultured in an IL-2 (20 IU/milliliter)-containing RPMI1640 medium for 7 days.
To amplify the sensitized CD8+ T cell group containing the antigen-specific CTLs, autologous LCLs (5×10^6 cells) into which the target antigen mRNA was introduced, autologous PBMCs (2.5×10^7 cells), and IL-2 (20 IU/milliliter) were added to the sensitized CD8+ T cell group. The resulting mixture was cultured in the absence of anti-CD3 antibody in a 25-milliliter flask (manufactured by Corning Incorporated).
A 96-well nitrocellulose ELISPOT plate (trade name: MAHA 54510, manufactured by Millipore Corporation) was coated by overnight incubation at 4° C. with 2 μg/milliliter antihuman IFN-γ mAb (trade name: 1-D1K). Each well was washed with PBS, and then blocked by incubation at 37° C. for 2 hours with RPMI1640 medium containing 10 wt % human AB serum. Effector cells (2×10^4 cells/well) and peptide-pulsed T2A24 cells (5×10^4 cells/well) were seeded to each well. […] Then, the plate was dried and spots were counted.

[4] = tested on: CD8-positive cells of wild-type C57BL6 mice; assay: IFN-gamma ELISPOT assay, same experiment in wild-type mice; format: cell-based, mouse; conditions: same experiment as in HHDA2402 mice
Method: as §1
Fresh CD8-positive cells (1×10^5 cells/well) derived from the immunized mice and CD8-negative cells (1×10^6 cells/well) pulsed with various peptides were seeded to each well and regulated so as to have a final volume of 200 μl. Then, the cells were cultured at 37° C. for 22 hours. Thereafter, the cells were washed sufficiently with PBS containing 0.05 wt % Tween™ 20 (referred to as “PBS-Tween”). Two hundreds microliters of 1.25 μg/milliliter biotinylated anti-mouse IFN-gamma mAb (trade name, manufactured by PharMingen Company) was added to the cells after washing, and the cells were then cultured overnight at 4° C. The cells thus obtained were washed with PBS-Tween. One hundred microliters of 1 μg/milliliter streptavidin-alkaline phosphatase conjugate (trade name, manufactured by Mabtech Ltd.) was added to the cells after washing. […] Then, the plate was dried and spots were counted. […]

| Sequence | HLA-A2402+ healthy normal humans in whom SAGE715-723 HLA-A24 tetramer-positive T cells were detected [1] | peptide-specific CTL response in ELISPOT assay (immunogenicity of peptide) [2] | IFN-γ release in ELISPOT with peptide-pulsed T2A24 as target cell ([3]; T2A24 pulsed with SAGE715-723, control HER263-71, FIG. 4C) | induction of peptide-specific bulk CTLs, IFN-γ ELISPOT ([3]; stimulation twice with CD4+ blast cells with truncated SAGE mRNA, T2A24 pulsed with peptide vs control peptide, FIG. 4A) | peptide-specific CTL response in ELISPOT assay [4] | IFN-γ ELISPOT reaction to T2A24 cells pulsed with peptide ([3]; MAGE-A4-specific bulk CTLs amplified with mRNA-introduced autologous LCL, autologous PBMC and IL-2, FIG. 2 panel B) |
| --- | --- | --- | --- | --- | --- | --- |
| LYATVIHDI (listed as Homo sapiens) [SAGE715-723] | three out of six | positive | IFN-γ was released | specific bulk CTLs were inducted | – | – |
| LYKPDSNEF (listed as Homo sapiens) [SAGE776-784] | – | positive | – | – | positive | – |
| NYKRCFPVI (listed as Homo sapiens) [MAGE-A4143-151] | – | positive | – | – | – | reaction specific |
| RYSIFFDYM (Epstein-Barr virus) [EBNA3A246-254, reference compound] | – | peptide-specific CTLs were detected | – | – | – | – |
| VYGEPRKLL (listed as Homo sapiens) [MAGE-A4239-247] | – | positive | – | – | positive | – |
